Values quoted from earlier work in EP1530463B1, “L-ARGININE CONTAINING PHARMACEUTICAL COMPOSITION” (Vasopharm Biotech GmbH, priority 2002, dated 2004).
Like-named read-outs stand apart in the source and are kept apart here.

N=C(N)NCCC[C@H](N)C(=O)O [L-arginine]
pKa (guanidino group): 12.48

O=C1O[C@H]([C@@H](O)CO)C(O)=C1O [ascorbic acid]
pKa (organic acid): 4.17
